# Laboratory results as given in publication PMC8961568 (Biomolecules, 2022).
# Target: T1, HQDS.b. (Streptomyces bingchenggensis, UniProt D7BW96)
# T1 construct: gene SBI_08688; His8-TEV tagged (pET28b), E. coli BL21(DE3), Ni-NTA purified
# T1 sequence (D7BW96 1-278): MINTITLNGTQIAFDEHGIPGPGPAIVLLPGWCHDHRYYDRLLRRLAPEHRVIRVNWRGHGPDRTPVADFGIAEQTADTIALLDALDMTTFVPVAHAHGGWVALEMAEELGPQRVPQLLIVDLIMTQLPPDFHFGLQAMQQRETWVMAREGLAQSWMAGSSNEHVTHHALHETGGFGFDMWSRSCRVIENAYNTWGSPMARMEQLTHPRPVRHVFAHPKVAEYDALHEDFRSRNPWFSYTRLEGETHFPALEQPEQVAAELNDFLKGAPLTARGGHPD
# Experiment: spectrophotometric PQS consumption at […] nm
# Format: biochemical
# Settings: 50 mM Tris, 2 mM EDTA, 10% PEG 1500, pH 8.0, 30 °C
smiles,measurement,value
"CCCCCCCc1[nH]c2ccccc2c(=O)c1O [PQS, 2-heptyl-3-hydroxy-4(1H)-quinolone]",KM,"HQDS.b., which exhibits the lowest KM towards PQS among the enzymes tested (Table S1)"
